“Also recorded” adds a separate entry of the source.
How the values were obtained:
[1] = tested on: human BT474-Gluc breast cancer metastatic brain tumors; assay: Antitumor efficacy, brain tumors established by IC injection; format: in vivo, Rag2−/−; Il2rg−/− mice
Method: (§1) For the IC model, 50,000 BT474-Gluc cells in 2 μL RPMI were intracranially injected into the right cerebral hemisphere of female Rag2−/−; Il2rg−/− mice (Jackson Laboratory) using a stereotaxic apparatus at a rate of 0.1 μL/min. The coordinates for injection were 2 mm posterior, 1.5 mm lateral to bregma, and 2.5 mm depth from bregma. For the IV model, 2 M cells were suspended in 150 μL RPMI and slowly injected into the lateral tail vein of restrained female Rag2−/−; Il2rg−/− mice.
(§2) Tumor Size Monitoring. For ICD and IV models, formation of BT474-Gluc brain metastatic tumors was monitored by MRI every third week until macroscopic tumors were visible (˜0.2 mm^3 in volume). Tumor growth was then monitored weekly by MRI, as for the IC model. Mice were anaesthetized with 1.5-2% (v/v) isoflurane in O2 at a flow rate of 1-1.5 mL/min. T2-weighted 3D RARE images were acquired to assess the tumor volume. […] Tumor volume was determined manually from the T2 hyperintense tumor regions of the brain using Fiji software. For the IC model, tumor size was also monitored by measuring the activity of secreted Gluc in the blood. […] Blood was transferred to an opaque 96-well plate (Nunc), and Gluc activity measured using the Pierce Gaussia Luciferase Flash Assay Kit, according to the manufacturer's protocol. Photon counts were acquired for 5 s following addition of coelenterazine using a Safire 2 multi-mode plate reader (Tecan). […]
(§3) Treatments. Treatment began when brain metastatic tumors reached ˜2 mm^3, as measured by MRI. […]
Brain Tumors Show Significant Delay in Growth with TfR-Targeted Nanoparticles, but their Response Differs when Established by Different Methods. […] After IC, ICD or IV injection of BT474-Gluc cells, formation of brain metastatic tumors was monitored by MRI. […] Brain tumor volume was measured weekly by MRI. Blood Gluc activity was measured in addition only for the IC model, due to substantial extracranial tumor burden in the ICD and IV models.

[2] = tested on: human BT474-Gluc breast cancer metastatic brain tumors; assay: Antitumor efficacy, brain tumors established by ICD injection; format: in vivo, Rag2−/−; Il2rg−/− mice
Method: Intracardiac (ICD) Brain Metastasis Model. All animals were treated according to the NIH guidelines for animal care and use as approved by the Caltech Institutional Animal Care and Use Committee. BT474-Gluc cells, transduced with an expression cassette encoding Gluc and CFP separated by an internal ribosomal entry site using a lentiviral vector, were obtained from Dr. Jain at Harvard University. BT474-Gluc cells were maintained in RPMI 1640 supplemented with 10% (v/v) FBS in a humidified oven at 37° C. with 5% CO2. 100,000 BT474-Gluc cells were suspended in 100 μL of RPMI and slowly injected into the left ventricle of female Rag2−/−; Il2rg−/− mice. Injections were performed blind, midway between the sternal notch and top of xyphoid process, and 13% anatomical left of sternum. Successful insertion into the left cardiac ventricle was confirmed by a bright red pulse of blood in the syringe.
as §2, with “mL/min.” for “mL/min. T2-weighted 3D RARE images were acquired to assess the tumor volume.”
as §3
Brain Tumors Show Significant Delay in Growth with TfR-Targeted Nanoparticles, but their Response Differs when Established by Different Methods. […] After IC, ICD or IV injection of BT474-Gluc cells, formation of brain metastatic tumors was monitored by MRI. […]

[3] = tested on: human BT474-Gluc breast cancer metastatic brain tumors; assay: Antitumor efficacy, brain tumors established by IV injection; format: in vivo, Rag2−/−; Il2rg−/− mice
Method: as §1
Tumor Size Monitoring. For ICD and IV models, formation of BT474-Gluc brain metastatic tumors was monitored by MRI every third week until macroscopic tumors were visible (˜0.2 mm^3 in volume). Tumor growth was then monitored weekly by MRI, as for the IC model. Mice were anaesthetized with 1.5-2% (v/v) isoflurane in O2 at a flow rate of 1-1.5 mL/min. T2-weighted 3D RARE images were acquired to assess the tumor volume. The image acquisition parameters were as follows: echo time: 6.1 ms; repetition time: 250 ms; rapid acquisition relaxation enhanced (RARE) factor: 4; number of averages: 4; field of view: 2.0 cm×1.2 cm×0.8 cm; matrix: 200×120×80 ([…] resolution). Tumor volume was determined manually from the T2 hyperintense tumor regions of the brain using Fiji software. For the IC model, tumor size was also monitored by measuring the activity of secreted Gluc in the blood. […] Blood was transferred to an opaque 96-well plate (Nunc), and Gluc activity measured using the Pierce Gaussia Luciferase Flash Assay Kit, according to the manufacturer's protocol. Photon counts were acquired for 5 s following addition of coelenterazine using a Safire 2 multi-mode plate reader (Tecan). […]
as §3
Development of Mouse Model that Replicates the Metastasis Process in HER2-Positive Breast Cancer Brain Metastasis Patients. […] HER2-positive BT474-Gluc cells were intravenously (IV) injected into Rag2^−/−; Il2rg^−/− mice, and formation of brain metastases was monitored by MRI. […]

[4] = Brain uptake of therapeutics in tumor and healthy brain tissue by HPLC; format: in vivo, Rag2−/−; Il2rg−/− mice; details: IC-established brain tumors; 24 h after 4 mg/kg dose (CPT basis)
Method: Brain Uptake of Therapeutics Differs in Tumor, but not Healthy Tissue between Models. To ascertain whether differences in brain penetration of the therapeutics might explain the discordance in efficacy between brain metastasis models, we systemically administered an additional dose of each treatment at the end of the efficacy study. After 24 h, mice were anesthetized and perfused with PBS to clear any remaining nanoparticles or free drug from the bloodstream. Drug uptake into tumor and healthy brain tissue was quantified by HPLC as previously described.

BT474-Gluc cells = assay: In vitro sensitivity to CPT of BT474-Gluc cells isolated from brain tumors and parental cells; format: cell-based, human; details: cells from IC-, ICD-, IV-established tumors and parental cells; dose-response curves
[5] = Gross toxicity observation during efficacy studies; format: in vivo, Rag2−/−; Il2rg−/− mice; details: tail vein injection once per week for 4 weeks
Method: Treatments. Treatment began when brain metastatic tumors reached ˜2 mm^3, as measured by MRI. Mice in each model were randomized into […] of six mice per group. CPT at a dose of 4 mg/kg (in 20% DMSO, 20% PEG 400, 30% ethanol, and 30% 10 mM pH 3.5 phosphoric acid), Herceptin at 24 mg/kg (in PBS, pH 7.4), TfR-targeted CPT nanoparticles at 4 mg/kg (CPT basis, in PBS, pH 7.4), TfR-targeted Herceptin nanoparticles at 24 mg/kg (Herceptin basis, in PBS, pH 7.4), and TfR-targeted combination CPT/Herceptin nanoparticles at 4 and 24 mg/kg (CPT and Herceptin bases, respectively, in PBS, pH 7.4) were freshly prepared. The different formulations were systemically administered by lateral tail vein injection once per week for 4 weeks. Injections were standardized to 150 μL per 20 g body weight. The control treatment was 0.9% (w/v) saline.

[6] = 4 mg/kg (CPT basis) weekly x4, end of the study

With `CC[C@@]1(O)C(=O)OCc2c1cc1n(c2=O)Cc2cc3ccccc3nc2-1` [CPT, camptothecin] the Mean tumor volume ([1]; 4 mg/kg (CPT basis) tail vein once per week for 4 weeks, end of the study) was 39 mm^3, the Median tumor volume [1, 6] was 39 mm^3 and the “decrease in mean tumor volume compared to saline” value ([1]; end of the study) was 2.6 fold. The Mean tumor volume [2, 6] was 69 mm^3, the Median tumor volume [2, 6] was 71 mm^3 and the “tumor growth response” value ([2]; compared to saline) was “modest response”. The Mean tumor volume [3, 6] was 86 mm^3, the Median tumor volume [3, 6] was 86 mm^3 and the “tumor growth inhibition” value ([3]; compared to saline) was “no tumor growth inhibition”. The “accumulation in tumor tissue” value [4] was “significant accumulation”, the “sensitivity of cells to CPT in vitro” value (BT474-Gluc cells) was “comparable sensitivities to CPT; also recorded: similarly sensitive to CPT” and the “gross signs of toxicity” value [5] was “animals did have reactions to dosing”.

— patent US11998616B2, “Nanoparticles for crossing the blood brain barrier and methods of treatment using the same” (California Institute of Technology, priority 2018, dated 2024)
